Reference: article PMC9412414, “A Study on Repositioning Nalidixic Acid via Lanthanide Complexation: Synthesis, Characterization, Cytotoxicity and DNA/Protein Binding Studies” (Pharmaceuticals, 2022)
Read-outs that look alike come from different tables or passages of the source.

Experiments:
[1] = molecular target: T1, human serum albumin (HSA) (Homo sapiens, UniProt P02768); assay: HSA fluorescence quenching binding study; conditions: for Ka (association binding constant), HSA / n1 (Number of Binding Sites), HSA / n2 (Hill Coefficient), HSA / Kd / fa (fraction of fluorophore accessible to the quencher), HSA / Kq (bimolecular quenching constant), HSA: 298 K; for fa (fraction of fluorophore accessible to the quencher), HSA / Ksv* (Stern–Volmer quenching constant), HSA: compound 0–8 µM; for Ksv* (Stern–Volmer quenching constant), HSA: Tris-HCl pH 7.4, 298 K; for Kq (bimolecular quenching constant), HSA: from Ksv* with τ0 = 10^−8 s
T1 construct: purchased Sigma-Aldrich Chemical Co. (Schnelldorf, Germany)
Description: (§1) Using a Jasco FP 6500 spectrofluorometer (Jasco, Tokyo, Japan) and quartz cells with a 1 cm path length, the fluorescence spectra of HSA and apo-Tf were recorded in the presence and absence of the examined substances. The 2.5 mL samples containing 2.5 µM HSA or 1 µM apo-Tf were titrated by adding 5 µL of the tested substance at a time, a volume that corresponded to a 1 µM increase in concentration. The concentration range used for these experiments varied from 0 to 8 µM. The relevant spectra were collected in the emission domains of 300–500 nm (HSA) and 305–500 nm (apo-Tf) after 3 min of continuous stirring at room temperature, using excitation wavelengths of 280 nm (HSA) and 295 nm (apo-Tf).
(§2) Experiments were conducted in a pH = 7.4 Tris-HCl buffer (5 mM Tris-HCl/50 mM NaCl for HSA and 5 mM Tris-HCl/50 mM NaCl/25 mM NaHCO3 for apo-Tf).
(§3) The following modified Stern–Volmer equation has been used to calculate the Stern–Volmer constant, which will be denoted as KSV* in order to differentiate it from the Stern–Volmer constant calculated for the DNA binding experiments:(5) F0/F0−F=1/faKsv*[Q]+1/fa where F0 and F are the fluorescence intensities in the absence and presence of the tested compounds, fa is the fraction of fluorophore accessible to the quencher (the tested compounds), [Q] is the quencher concentration, and KSV* (M^−1) is the Stern–Volmer constant; the plot of F0/(F0 − F) against 1/[Q] yields KSV as the slope and fa as the y intercept.
(§4) Subsequently, the bimolecular quenching rate constant was obtained by using Equation (6):(6) Ksv^*=Kqτ0
(§5) Kq (M^−1·s^−1) is the bimolecular quenching rate constant and τ0 is the fluorophore’s lifespan in the absence of the investigated chemicals (10^−8 s). The value of Kq can be used to assess whether the quenching phenomena have an underlying static or dynamic mechanism.
(§6) Using the following equation, the affinity constant (Ka) and the number of binding sites (n) have been calculated: (7) lgF0−F/F=lgKa+nlg[Q]
(§7) The binding affinity, Kd, can be calculated using the quadratic function below:(8) F0−F/F0−Fb=[P]t+[Q]+Kd−([P]t+[Q]+Kd)^2−4[P]t[Q]/2[P]t where F and F0 are the fluorescence intensities of the protein in the presence and absence of the quencher, respectively, Fb is the fluorescence of a fully bound protein–quencher, [P]t is the total concentration of the protein, and [Q] is the concentration of the added quencher. Each binding isotherm was plotted against the total quencher concentration in solution as a function of bound to free protein (F/F0).
(§8) The isotherms were then fitted using the nonlinear regression function below:(9) F/F0= F1+(F2−F1)Kdn/Kdn+[Q]^n where n represents the Hill coefficient, F1 and F2 are the horizontal and vertical asymptotes, respectively. The Kd in Equation (9) is derived from the quadratic binding function (Equation (8)).
(§9) Data were collected in triplicate, averaged, and expressed as mean value ± standard deviation (SD). All graph fitting models were defined and built using OriginPro® 2018.

apotransferrin (apo-Tf) = molecular target: T2, apotransferrin (apo-Tf) (Homo sapiens, UniProt P02787); assay: Apo-Tf fluorescence quenching binding study; conditions: for Ka (association binding constant), Apo-Tf / n1 (Number of Binding Sites), Apo-Tf / n2 (Hill Coefficient), Apo-Tf / Kd / fa (fraction of fluorophore accessible to the quencher), Apo-Tf / Ksv* (Stern–Volmer quenching constant), Apo-Tf / quenching effect on apo-Tf fluorescence peak: apo-Tf 1 µM; for Ka (association binding constant), Apo-Tf / n1 (Number of Binding Sites), Apo-Tf / n2 (Hill Coefficient), Apo-Tf / Kd / fa (fraction of fluorophore accessible to the quencher), Apo-Tf / Kq (bimolecular quenching constant), Apo-Tf: 298 K; for fa (fraction of fluorophore accessible to the quencher), Apo-Tf / Ksv* (Stern–Volmer quenching constant), Apo-Tf: compound 0–8 µM; for Ksv* (Stern–Volmer quenching constant), Apo-Tf: Tris-HCl pH 7.4, 298 K; for quenching effect on apo-Tf fluorescence peak: compound up to 8 µM; for Kq (bimolecular quenching constant), Apo-Tf: from Ksv* with τ0 = 10^−8 s
T2 construct: purchased Sigma-Aldrich Chemical Co. (Schnelldorf, Germany)
Description: as §1, §2, §3, §4, §5, §6, §7, §8, §9

[2] = test system: HUVEC (human umbilical vein endothelial cells); assay: MTS cytotoxicity assay, HUVEC normal cell line; format: cell-based; conditions: 24 h of incubation
Description: (§10) LoVo, MDA-MB-231 and HUVEC human cell lines were purchased from American Type Culture Collection (ATCC). Cells were routinely maintained in culture either in culture flasks or seeded in plates, using Dulbecco’s modified Eagle medium/nutrient mixture F-12 (DMEM:F12) medium supplemented with […], 10% fetal calf serum (Sigma Aldrich, St. Louis, MO, USA), 100 units/mL penicillin, 100 μg/mL streptomycin and incubated at 37 °C in 5% CO2 humidified atmosphere.
(§11) Cytotoxicity studies were performed in 96-well microtiter plates with flat bottoms (Falcon, Teterboro, NJ, USA) using the CellTiter 96 Aqueous One Solution Cell Proliferation Assay (Promega, Madison, WI, USA), an MTS-based colorimetric assay. Metabolically active cells have the ability to reduce MTS [3-(4,5-dimethylthiazol-2-yl)-5-(3-carboxymethoxyphenyl)-2-(4-sulfophenyl)-2H-tetrazolium, inner salt], a yellow tetrazolium salt, to a colored formazan that is soluble in the culture medium. Briefly, 15 × 10^3 cells per well were cultured in 100 µL culture medium. After 24 h, adherent cells were treated with different concentrations of the studied compounds, as well as adriamycin (Adr) and cisplatin (Cis-Pt), used as positive controls for 24 h and 48 h, respectively. Each well was then filled with 20 µL of reagent containing MTS and PES (phenazine ethosulfate, a cationic dye with excellent chemical stability that binds to MTS and produces a stable solution). The resulting formazan was determined using a Tecan GENios Spectrophotometer (Tecan US, Durham, NC, USA) by measuring the absorbance at λ = 492 nm after incubation for 4 h at 37 °C with moderate agitation every 15 min. The cytotoxicity tests were performed in triplicate, with results reported as mean values with standard deviations (SD). The cytotoxicity of DMSO was also investigated under the same conditions, and no harmful effect was found at doses less than 1%.
(§12) Data were expressed as cell viability by comparing with untreated cells considered 100% viable, using the following formula:(1) Cell viability (%)=absorbance of treated cells−absorbance of culture medium/absorbance of untreated cells−absorbance of culture medium

EB–DNA system (CT-DNA) = assay: Competitive binding assay with ethidium bromide (EB) through fluorescence spectroscopy; parameters: species or system calf; conditions: EB 2 µM, CT-DNA 10 µM, compound 0–40 µM
Description: The fluorescence spectra were recorded using 1.6 mL samples containing 10 µM CT-DNA, 2 µM EB, and increasing amounts (0–40 µM with an increment of 5 µM) of tested compounds; the samples were prepared by keeping the components in contact for 10 min at room temperature, under continuous stirring and in the dark. The excitation wavelength was 500 nm, and the spectra were recorded between the wavelengths of 520 and 800 nm. A Jasco FP 6500 fluorometer and quartz cells with a 1 cm route length were employed. The classical Stern–Volmer equation (Equation (3)) was used to interpret the obtained data:(3) F0/F=1+KSV·[Q] F0 and F are the fluorescence intensities of the EB–DNA samples in the absence and presence of the tested compounds, respectively; KSV is the Stern–Volmer constant, which was computed as the slope from the plot of F0/F vs. [Q], where [Q] is the chemical concentration.
The binding ratio was plotted against the logarithm of the concentration in comparison with a control sample exposed solely to DMSO. (4) y=A1+(A2−A1)×x^n/K50^n+x^n
For fitting data points, the modified Hill function with offset (Origin®) was used: where y represents the binding ratio (F/F0), x represents the concentration, A1 represents the minimum of y values, A2 represents the maximum of y values, K50 represents the concentration corresponding to 50% binding or the half maximum binding constant, and n represents the Hill coefficient.

[3] = test system: LoVo (human colorectal adenocarcinoma) cell line; assay: MTS cytotoxicity assay, LoVo cell line; format: cell-based; conditions: 48 h of incubation
Description: as §10, §11, §12

[4] = HSA 2.5 µM, read-out: Kd (dissociation constant), HSA
[5] = read-out: Kd (dissociation constant), Apo-Tf

T1 sequence (P02768 25-609): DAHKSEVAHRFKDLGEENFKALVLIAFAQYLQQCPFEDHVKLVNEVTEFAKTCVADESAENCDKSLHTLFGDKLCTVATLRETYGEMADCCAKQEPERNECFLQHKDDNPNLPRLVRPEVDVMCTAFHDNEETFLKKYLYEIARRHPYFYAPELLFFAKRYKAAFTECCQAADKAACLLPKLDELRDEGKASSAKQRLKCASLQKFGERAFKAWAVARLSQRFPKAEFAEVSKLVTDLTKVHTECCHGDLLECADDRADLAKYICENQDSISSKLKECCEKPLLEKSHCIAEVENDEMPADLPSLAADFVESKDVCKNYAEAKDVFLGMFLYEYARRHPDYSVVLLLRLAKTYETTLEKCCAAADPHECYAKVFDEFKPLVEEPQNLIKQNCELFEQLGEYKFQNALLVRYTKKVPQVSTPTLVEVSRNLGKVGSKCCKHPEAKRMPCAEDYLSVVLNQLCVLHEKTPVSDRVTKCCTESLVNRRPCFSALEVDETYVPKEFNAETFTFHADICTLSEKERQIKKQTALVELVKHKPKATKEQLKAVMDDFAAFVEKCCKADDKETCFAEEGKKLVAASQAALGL
T2 sequence (P02787 20-698): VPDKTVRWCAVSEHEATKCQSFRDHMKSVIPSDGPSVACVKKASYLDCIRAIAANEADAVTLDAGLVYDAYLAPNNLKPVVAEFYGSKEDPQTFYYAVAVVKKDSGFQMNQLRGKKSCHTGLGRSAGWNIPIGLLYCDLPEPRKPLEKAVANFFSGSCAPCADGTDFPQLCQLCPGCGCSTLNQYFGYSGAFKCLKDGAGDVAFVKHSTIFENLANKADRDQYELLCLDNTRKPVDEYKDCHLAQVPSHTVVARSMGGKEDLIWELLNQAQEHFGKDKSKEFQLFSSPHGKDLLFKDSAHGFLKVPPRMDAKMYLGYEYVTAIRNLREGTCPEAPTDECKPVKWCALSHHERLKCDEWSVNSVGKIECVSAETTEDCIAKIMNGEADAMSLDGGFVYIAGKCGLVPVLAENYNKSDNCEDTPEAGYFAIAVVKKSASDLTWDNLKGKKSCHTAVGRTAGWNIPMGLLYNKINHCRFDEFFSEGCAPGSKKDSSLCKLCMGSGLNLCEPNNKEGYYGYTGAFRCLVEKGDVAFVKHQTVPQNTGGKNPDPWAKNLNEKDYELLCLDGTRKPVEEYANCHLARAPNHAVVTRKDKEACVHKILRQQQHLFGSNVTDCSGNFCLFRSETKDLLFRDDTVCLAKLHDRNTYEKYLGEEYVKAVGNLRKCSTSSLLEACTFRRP

Structure (SMILES)	Ka (association binding constant), HSA ([1]; HSA 2.5 µM)	n1 (Number of Binding Sites), HSA ([1]; HSA 2.5 µM)	n2 (Hill Coefficient), HSA ([1]; HSA 2.5 µM)	Kd [1, 4] [µM]	fa (fraction of fluorophore accessible to the quencher), HSA ([1]; HSA 2.5 µM)	Ksv* (Stern–Volmer quenching constant), HSA ([1]; HSA 2.5 µM)	Kq (bimolecular quenching constant), HSA [1] [M⁻¹ s⁻¹]	Ka (association binding constant), Apo-Tf (apotransferrin (apo-Tf))	n1 (Number of Binding Sites), Apo-Tf (apotransferrin (apo-Tf))	n2 (Hill Coefficient), Apo-Tf (apotransferrin (apo-Tf))	Kd (apotransferrin (apo-Tf); [5]) [µM]	fa (fraction of fluorophore accessible to the quencher), Apo-Tf (apotransferrin (apo-Tf))	Ksv* (Stern–Volmer quenching constant), Apo-Tf (apotransferrin (apo-Tf))	quenching effect on apo-Tf fluorescence peak (apotransferrin (apo-Tf)) [%]	Kq (bimolecular quenching constant), Apo-Tf (apotransferrin (apo-Tf)) [M⁻¹ s⁻¹]	IC50 [2] [µM]	EB Displacement Assay K50 (half maximum binding constant) (EB–DNA system (CT-DNA)) [µM]	KSV, Stern–Volmer quenching constant (EB–DNA) (EB–DNA system (CT-DNA))	IC50 [3] [µM]	further results
CCn1cc(C(=O)[O-])c(=O)c2ccc(C)nc21.CCn1cc(C(=O)[O-])c(=O)c2ccc(C)nc21.CCn1cc(C(=O)[O-])c(=O)c2ccc(C)nc21.O.O.O.O.O.O.O.O.[La+3] [La(nal)3, La(C12H11N2O3)3(H2O)2·6H2O]	(27.48 ± 2.10) × 10^5 M^−1	1.16 ± 0.00	1.18 ± 0.08	2.91 ± 0.07	1.12 ± 0.01	(2.75 ± 0.10) × 10^5 M^−1	2.75e+13	(1.51 ± 0.72) × 10^4 M^−1	0.86 ± 0.04	1.04 ± 0.19	8.64 ± 2.22	0.80 ± 0.06	(1.04 ± 0.13) × 10^5 M^−1	31	1.04e+13	149 ± 17.9	36.45 ± 16.53	2.48 ± 0.44 M^−1 (×10^3)	49.8 ± 7.92	
CCn1cc(C(=O)O)c(=O)c2ccc(C)nc21 [Nalidixic acid]		1.03 ± 0.01	1.33 ± 0.29	5.69 ± 1.44	1.06 ± 0.02	(1.25 ± 0.06) × 10^5 M^−1	1.25e+13		0.79 ± 0.02	1.55 ± 0.37	6.55 ± 2.11	0.48 ± 0.03	(1.02 ± 0.09) × 10^5 M^−1		1.02e+13		50.41 ± 9.60	9.87 ± 0.11 M^−1 (×10^3)		Kd ([1]; HSA 2.5 µM, read-out: Ka (association binding constant), HSA): 4.57 µM; Kd (apotransferrin (apo-Tf); read-out: Ka (association binding constant), Apo-Tf): 323 µM; IC50 ([2]; Homo sapiens): > 200 µM; IC50 (μM) LoVo [3]: not toxic; IC50 ([3]; Homo sapiens): > 200 µM
CCn1cc(C(=O)[O-])c(=O)c2ccc(C)nc21.CCn1cc(C(=O)[O-])c(=O)c2ccc(C)nc21.O.O.O.O.[OH-].[Sm+3] [Sm(nal)2, Sm(C12H11N2O3)2(OH)(H2O)·3H2O]	(8.25 ± 1.62) × 10^5 M^−1	1.08 ± 0.01	1.34 ± 0.09	3.6 ± 0.11	1.05 ± 0.02	(2.50 ± 0.12) × 10^5 M^−1	2.5e+13	(10.17 ± 6.14) × 10^4 M^−1	1.01 ± 0.05	1.71 ± 0.31	6.16 ± 1.27	0.79 ± 0.02	(1.16 ± 0.06) × 10^5 M^−1	35	1.16e+13	> 200	31.35 ± 4.21	10.24 ± 0.22 M^−1 (×10^3)	92.4 ± 16	quenching effect on HSA fluorescence peak ([1]; HSA 2.5 µM, compound up to 8 µM): ~ 73%
